Results: patent US20230248833A1, “COMPOUND HAVING BTK KINASE DEGRADING ACTIVITY, AND PREPARATION METHOD AND PHARMACEUTICAL USE THEREFOR” (SICHUAN HAISCO PHARMACEUTICAL CO., LTD., priority 2020, published 2023)
Like-named read-outs stand apart in the source and are kept apart here.

Legend:
Mino cells = assay: Inhibition of cell proliferation, Mino cells (Cell Viability Assay, 72 h); format: cell-based, human
Experimental: (§1) SU-DHL-4, Mino, and SU-DHL-6 cells, in the culture medium of RPMI1640+10% FBS, were cultured in an incubator at 37° C. under 5% CO2. Cells were plated in a 96-well plate. Specifically, SU-DHL-4 cells were at 20000/well, Mino and SU-DHL-6 cells were at 5000/well, with 90 μL/well. 10 μL of the compounds at different concentrations were added to each well. There were 3 replicate wells for each concentration, and the last column, added with DMSO, was used as a vehicle control group. The cultures were continued for 72 hours at 37° C. under 5% CO2. After 72 hours, 100 μL of detection reagent (Cell Viability Assay, Promega, G7573) was added to each well, and the cultures were uniformly mixed for 2 minutes, and incubated at room temperature for 10 minutes. The […] signal value was measured with a microplate reader (PHERAstar FSX). The IC50 value of the compound on cell proliferation inhibition was calculated using origin9.2 software, and the inhibition rate at the highest concentration of the compound (Max inhi.%) was calculated according to formula (1).
(§2) Max inhi.%=(1−T72administration/T72vehicle)×100 Formula (1).

SU-DHL-6 cells = assay: Inhibition of cell proliferation, SU-DHL-6 cells (Cell Viability Assay, 72 h); format: cell-based, human
Experimental: as §1, §2

[1] = Pharmacokinetic experiment in rats; format: in vivo; conditions: male, SD, rat, po, plasma, i.g. (20 mg/kg); for AUC(0-t): single dose
Experimental: Experimental objective: In this experiment, a single dose of each test compound was administered to SD rats intravenously and intragastrically, the concentrations of the test compound in plasma of rats were measured, and the pharmacokinetic characteristics and bioavailability of the test compound in rats were evaluated.
Experimental animals: Male SD rats, about 200 g, 6-8 weeks old, 6 rats/compound. Rats were purchased from Hunan SJA Laboratory Animal Co., Ltd, with the laboratory animal production license number of SCXK (Xiang) 2019-004.
Experimental method: On the day of the experiment, 6 SD rats were randomly grouped according to their body weight. The animals were fasted with water available for 12 to 14 hours one day before the administration of a test compound, and were fed 4 hours after the administration.
Before and after the administration, […] of blood was taken from the orbit of the rats under isoflurane anesthesia, and placed in an EDTAK2 centrifuge tube. Centrifugation was carried out at 5000 rpm at 4° C. for 10 min, and the plasma was collected.
Time points for sample collection in G1&G2 groups comprise
Before analysis and detection, all samples were stored at −80° C. The samples were detected by HPLC-MS/MS.

Row | SMILES | IC50 (SU-DHL-6 cells; Homo sapiens, SU-DHL-6, 72 h) | AUC(0-t) [1] | bioavailability ([1]; bioavailability) | IC50 (SU-DHL-6 cells) | IC50 (Mino cells; Homo sapiens, MINO, 72 h) | IC50 (Mino cells)
1 | Nc1ncnc2c1c(-c1ccc(Oc3ccccc3)cc1)nn2[C@H]1CCN(C2CN(CC3CN(c4ccc5c(c4)C(=O)N(C4CCC(=O)NC4=O)C5=O)C3)C2)C[C@H]1F (stereo partly drawn) [Compound 104, 5-(3-((3-((3R,4S)-4-(4-amino-3-(4-phenoxyphenyl)-1H-pyrazolo[3,4-d]pyrimidin-1-yl)-3-fluoropiperidin-1-yl)azetidin-1-yl)methyl)azetidin-1-yl)-2-(2,6-dioxopiperidin-3-yl)isoindoline-1,3-dione] | 23 nM | 1320 ± 653 ng·h/mL | – | – | 16 nM | –
2 | Nc1ncnc2c1c(-c1ccc(Oc3ccccc3)cc1)nn2C1CCN(C2CN(CC3CN(c4cc5c(cc4F)C(=O)N(C4CCC(=O)NC4=O)C5=O)C3)C2)CC1 (centres unmarked) [Compound 106, 5-(3-((3-(4-(4-amino-3-(4-phenoxyphenyl)-1H-pyrazolo[3,4-d]pyrimidin-1-yl)piperidin-1-yl)azetidin-1-yl)methyl)azetidin-1-yl)-2-(2,6-dioxopiperidin-3-yl)-6-fluoroisoindoline-1,3-dione] | 95 nM | 3210 ± 728 ng·h/mL | 14.4 ± 3.3% | – | 119 nM | –
3 | Nc1ncnc2c1c(-c1ccc(Oc3ccccc3)cc1)nn2C1CCN(C2C[C@@H]3CN(CC4CN(c5ccc6c(c5)C(=O)N(C5CCC(=O)NC5=O)C6=O)C4)C[C@@H]3C2)CC1 (stereo partly drawn) [Trifluoroacetate of compound 100, 5-(3-(((3aR,6aS)-5-(4-(4-amino-3-(4-phenoxyphenyl)-1H-pyrazolo[3,4-d]pyrimidin-1-yl)piperidin-1-yl)hexahydrocyclopenta[c]pyrrol-2(1H)-yl)methyl)azetidin-1-yl)-2-(2,6-dioxopiperidin-3-yl)isoindoline-1,3-dione] | 99 nM | – | – | – | 123 nM | –
4 | Nc1ncnc2c1c(-c1ccc(Oc3ccccc3)cc1)nn2C1CCN(C2CC3(CCN(CC4CN(c5ccc6c(c5)C(=O)N(C5CCC(=O)NC5=O)C6=O)C4)CC3)C2)CC1 (centres unmarked) [Trifluoroacetate of compound 101, 5-(3-((2-(4-(4-amino-3-(4-phenoxyphenyl)-1H-pyrazolo[3,4-d]pyrimidin-1-yl)piperidin-1-yl)-7-azaspiro[3.5]nonan-7-yl)methyl)azetidin-1-yl)-2-(2,6-dioxopiperidin-3-yl)isoindoline-1,3-dione] | 77 nM | – | – | – | 77 nM | –
5 | Nc1ncnc2c1c(-c1ccc(Oc3ccccc3)cc1)nn2C1CCN(C2CN(CC3CN(c4ccc5c(c4)CN(C4CCC(=O)NC4=O)C5=O)C3)C2)CC1 (centres unmarked) [Trifluoroacetate of compound 107, 3-(5-(3-((3-(4-(4-amino-3-(4-phenoxyphenyl)-1H-pyrazolo[3,4-d]pyrimidin-1-yl)piperidin-1-yl)azetidin-1-yl)methyl)azetidin-1-yl)-1-oxoisoindolin-2-yl)piperidine-2,6-dione] | – | – | – | 22 nM | – | 34 nM

Further lines, with some results ahead:

Row | IC50 (SU-DHL-6 cells; Homo sapiens, SU-DHL-6, 72 h) | AUC(0-t) [1] | bioavailability ([1]; bioavailability) | IC50 (SU-DHL-6 cells) | SMILES | IC50 (Mino cells; Homo sapiens, MINO, 72 h) | IC50 (Mino cells)
6 | 23 nM | – | – | – | Nc1ncnc2c1c(-c1ccc(Oc3ccccc3)cc1)nn2C1CCN(C2CN(C3CN(CC4CN(c5ccc6c(c5)C(=O)N(C5CCC(=O)NC5=O)C6=O)C4)C3)C2)CC1 (centres unmarked) [Trifluoroacetate of compound 102, 5-(3-((3-(4-(4-amino-3-(4-phenoxyphenyl)-1H-pyrazolo[3,4-d]pyrimidin-1-yl)piperidin-1-yl)-[1,3′-biazetidin]-1′-yl)methyl)azetidin-1-yl)-2-(2,6-dioxopiperidin-3-yl)isoindoline-1,3-dione] | 42 nM | –
7 | – | – | – | 145 nM | Nc1ncnc2c1c(-c1ccc(Oc3ccccc3)cc1)nn2C1CCN(C2CN(CC3CN(Cc4ccc5c(c4)C(=O)N(C4CCC(=O)NC4=O)C5=O)C3)C2)CC1 (centres unmarked) [Trifluoroacetate of compound 109, 5-((3-((3-(4-(4-amino-3-(4-phenoxyphenyl)-1H-pyrazolo[3,4-d]pyrimidin-1-yl)piperidin-1-yl)azetidin-1-yl)methyl)azetidin-1-yl)methyl)-2-(2,6-dioxopiperidin-3-yl)isoindoline-1,3-dione] | – | 356 nM
